The values that follow come from ChEMBL document CHEMBL3301472, “MMV Malaria Box HIV and cytotoxicity screening”.

Common to all, as to assay type: toxicity, cell-based
Series [1] can be described thus: MMV: MTT Cytotoxicity Assay Day 3 pi, U87-CD4-CCR5 cells, % cell death @ 5mM compound. To be noted: human, u87-cd4-ccr5, 5000 µM.
Series [2] in a line: MMV: MTT Cytotoxicity Assay Day 3 pi, U87-CD4-CXCR4 cells, % cell death @ 5mM compound. The conditions noted are these: human, u87-cd4-cxcr4, 5000 µM.
Series [3] is described as follows: MMV: MTT Cytotoxicity Assay Day 7 pi of Assay #6 (compound washed out Day 1 pi), U87-CD4-CCR5 cells, % cell death @ 5mM compound. To be noted: human, u87-cd4-ccr5, 5000 µM.
The nature of series [4]: MMV: MTT Cytotoxicity Assay Day 7 pi of Assay #7 (compound washed out Day 1 pi), U87-CD4-CXCR4 cells, % cell death @ 5mM compound. The conditions noted are these: human, u87-cd4-cxcr4, 5000 µM.
Series [5] can be described thus: MMV: MTT Cytotoxicity Assay Day 7 pi of Assay #10 (NO washout), U87-CD4-CCR5 cells, % cell death @ 5mM compound. To be noted: human, u87-cd4-ccr5, 5000 µM.
Series [6] is described as follows: MMV: MTT Cytotoxicity Assay Day 7 pi of Assay #11 (NO washout), U87-CD4-CXCR4 cells, % cell death @ 5mM compound. The conditions noted are these: human, u87-cd4-cxcr4, 5000 µM.

For `COc1ccc(C(=O)NC(c2ccccc2Cl)c2cc(Cl)c3cccnc3c2O)cc1` (centres undefined), the “% Cell Death” value in series [1] was found to be 50; in series [2], 81; in series [3], 23; in series [4], 3; in series [5], 11; in series [6] it was 6.
With `CCOC(=O)c1cnc2c(C)cccc2c1Nc1ccc(C(C)=O)cc1`, the “% Cell Death” value in series [1] is recorded as 70; in series [2], 76; in series [3] it was 49; in series [4] it was 78; in series [5], 69; in series [6] it was 80.
Turning to `CCCCC(O)(c1ccc(Cl)cc1)C(CN1CCOCC1)c1ccc(Cl)cc1.Cl` (centres undefined), the “% Cell Death” value is listed as -6 in series [1]; 36 in series [2]; -10 in series [3]; -16 in series [4]; 17 in series [5]; 41 in series [6].
For `COc1ccc2nc(C)cc(Nc3ccc(Cl)cc3)c2c1`, the “% Cell Death” value in series [1] is reported as 106; in series [2] it was 100; in series [3] it was 103; in series [4], 90; in series [5] it was 121; in series [6], 117.
As to `Oc1ccc(Br)cc1CN1CCN(Cc2ccc(Cl)cc2)CC1`, the “% Cell Death” value in series [1] came out at 27; in series [2], 69; in series [3], 12; in series [4], 29; in series [5], 46; in series [6], 44.
With `O=C(Nc1ccc(-c2nc3ccccc3[nH]2)cc1)c1ccc(Cl)c(Cl)c1`, the “% Cell Death” value is 38 in series [1]; 39 in series [2]; -9 in series [3]; 20 in series [4]; 33 in series [5]; -46 in series [6].
With `Cl.OC(CNCc1ccccc1)Cn1c2ccccc2c2ccccc21` (centres undefined), the “% Cell Death” value in series [1] was 19; in series [2], 18; in series [3], 10; in series [4] it was -9; in series [5] it was 11; in series [6], -23.
For `Nc1ccc(-c2nc3cc(Cc4ccc5[nH]c(-c6ccc(N)cc6)nc5c4)ccc3[nH]2)cc1`, the “% Cell Death” value in series [1] was found to be 88; in series [2], 57; in series [3] it was 69; in series [4], 82; in series [5] it was 98; in series [6], 110.
With `CC(C)(C)c1ccc2c(c1)CN(Cc1ccc(Cl)cc1)CO2`, the “% Cell Death” value is 64 in series [1]; 37 in series [2]; 66 in series [3]; 18 in series [4]; 23 in series [5]; -36 in series [6].
As for `CCOC(=O)c1cnc2c(C)cc(C)cc2c1Nc1ccc(OC)c(OC)c1`, the “% Cell Death” value in series [1] is 11; in series [2], 22; in series [3], 19; in series [4] it was 7; in series [5], 8; in series [6] it was -7.
Regarding `Cc1cc(Nc2ccc(OCc3ccccc3)cc2)nc2cc(O)ccc12`, the “% Cell Death” value in series [1] is reported as 23; in series [2], -46; in series [3], 18; in series [4], 6; in series [5], -10; in series [6], -7.
Regarding `COc1cc(-c2nc(-c3ccccc3)c(-c3ccccc3)[nH]2)cc(OC)c1O`, the “% Cell Death” value in series [1] was 104; in series [2], 52; in series [3], 88; in series [4], 84; in series [5], 120; in series [6] it was 105.
On to `COc1ccc(Br)cc1C1Nc2ccc3ccccc3c2C2=C1C(=O)CC(c1ccccc1)C2` (centres undefined), for which the “% Cell Death” value in series [1] is recorded as 17; in series [2], 28; in series [3], 30; in series [4] it was -14; in series [5], 16; in series [6], -37.
Regarding `CCOc1ccc(-c2nc(NC(=O)c3cccc(S(C)(=O)=O)c3)sc2C)cc1`, the “% Cell Death” value is 5 in series [1]; -6 in series [2]; 0 in series [3]; -38 in series [4]; 2 in series [5]; 29 in series [6].
For `CCOc1ccc(/C=C/c2nc(=O)c3ccccc3o2)cc1`, the “% Cell Death” value was 41 in series [1]; 31 in series [2]; 27 in series [3]; -27 in series [4]; 21 in series [5]; 10 in series [6].
As for `Oc1ccc(C(=C(Cl)Cl)c2ccc(O)cc2)cc1`, the “% Cell Death” value in series [1] was 80; in series [2], 75; in series [3] it was -14; in series [4] it was 36; in series [5], 84; in series [6] it was 103.
`OC1=C2C(=Nc3ccccc3SC2c2ccccc2)c2ccccc21` (centres undefined): the “% Cell Death” value in series [1] is 37; in series [2], 20; in series [3] it was -22; in series [4], 24; in series [5], -15; in series [6] it was -20.
As for `CCOc1ccc(-c2nonc2NC(=O)c2cccc(C)c2)cc1OCC`, the “% Cell Death” value in series [1] is recorded as -8; in series [2] it was 13; in series [3], -8; in series [4], -14; in series [5] it was 19; in series [6] it was -48.
For the compound `Cc1ccc(F)cc1NC(=O)c1cc(Cl)ccc1Nc1ccccc1`, the “% Cell Death” value is recorded as 7 in series [1]; 25 in series [2]; 8 in series [3]; -2 in series [4]; 28 in series [5]; -27 in series [6].
For `O=C(c1ccccc1F)N(Cc1ccc(Cl)cc1)c1ccccn1`, the “% Cell Death” value in series [1] is 50; in series [2] it was 44; in series [3] it was 22; in series [4], -34; in series [5] it was 87; in series [6], 71.
In the case of `COc1ccc(C)c2sc(N(Cc3cccnc3)C(=O)c3ccc(C#N)cc3)nc12`, the “% Cell Death” value in series [1] is given as -7; in series [2], 24; in series [3], -1; in series [4], -6; in series [5], 13; in series [6], -39.
Take `COc1ccc(-c2c(C)nn3c(N)c(C#N)cnc23)cc1OC`: the “% Cell Death” value in series [1] worked out at 83; in series [2], 98; in series [3], 93; in series [4], 89; in series [5] it was 124; in series [6] it was 93.
As for `O=C(Nc1ccc(C23CC4CC(CC(c5ccccc5)(C4)C2)C3)cc1)c1cccs1`, the “% Cell Death” value in series [1] amounted to 107; in series [2], 95; in series [3] it was 109; in series [4] it was 98; in series [5], 77; in series [6], 109.
On to `O=c1nc(C=Cc2ccc(Br)cc2)oc2ccccc12`, for which the “% Cell Death” value in series [1] is reported as 17; in series [2], 23; in series [3] it was -7; in series [4], 24; in series [5], 35; in series [6], -17.
Turning to `Cc1cc(Nc2ccc3ccccc3c2)n2ncnc2n1`, the “% Cell Death” value was 39 in series [1]; 38 in series [2]; 12 in series [3]; -16 in series [4]; -3 in series [5]; -43 in series [6].
As for `FC(F)(F)c1ccc(Nc2nnnc3ccccc23)cc1`, the “% Cell Death” value is reported as 67 in series [1]; 28 in series [2]; 44 in series [3]; -10 in series [4]; 121 in series [5]; 90 in series [6].
Turning to `COc1ccc(N2CCN(C(CNC(=O)CC(C)(C)C)c3ccc4c(c3)OCO4)CC2)cc1` (centres undefined), the “% Cell Death” value in series [1] is given as -2; in series [2], 38; in series [3], 6; in series [4] it was 22; in series [5], 44; in series [6], 37.
As to `Cc1cc(NC(=O)c2cccc(C(F)(F)F)c2)n(-c2nc(-c3ccc4c(c3)OCO4)cs2)n1`, the “% Cell Death” value is listed as 40 in series [1]; 17 in series [2]; 16 in series [3]; -18 in series [4]; 9 in series [5]; -57 in series [6].
As to `COc1ccc(C2=C(c3ccc(OC)cc3)C3(c4ccccc4)C(=O)C2(c2ccccc2)C2C(=O)N(c4ccc(C)cc4)C(=O)C23)cc1` (centres undefined), the “% Cell Death” value in series [1] is -42; in series [2], 28; in series [3], -10; in series [4] it was 13; in series [5], 41; in series [6], -6.
